In ChEMBL document CHEMBL1201862, “PubChem BioAssay data set” (2004):
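Interpolation was linear, between the two tested concentrations surrounding the appropriate level; five concentrations were tested over 48 hours in 96-well plates. GI50 marks 50% less growth.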 Activity calls are given as the source filed them. Rule as the data show it: active = GI50 up to about 1.1 µM and inactive = higher.

Columns and labels:
Assay in all cases: NCI tumour cell line growth inhibition, 48 h
NCI-H522 = test system: NCI-H522
SR = test system: SR
SNB-75 = test system: SNB-75
SW-620 = test system: SW-620
A549 = test system: A549
HCC 2998 = test system: HCC 2998
NCI-H460 = test system: NCI-H460
LOX IMVI = test system: LOX IMVI
KM12 = test system: KM12
OVCAR-3 = test system: OVCAR-3
NCI/ADR-RES = test system: NCI/ADR-RES
SF-268 = test system: SF-268
UO-31 = test system: UO-31
K562 = test system: K562
SK-OV-3 = test system: SK-OV-3
SF-295 = test system: SF-295
RXF 393 = test system: RXF 393
OVCAR-8 = test system: OVCAR-8
ACHN = test system: ACHN
SNB-19 = test system: SNB-19

Row | Compound | GI50 (NCI-H522) | GI50 (SR) | GI50 (SNB-75) | GI50 (SW-620) | GI50 (A549) | GI50 (HCC 2998) | GI50 (NCI-H460) | GI50 (LOX IMVI) | GI50 (KM12) | GI50 (OVCAR-3) | GI50 (NCI/ADR-RES) | GI50 (SF-268) | GI50 (UO-31) | GI50 (K562) | GI50 (SK-OV-3) | GI50 (SF-295) | GI50 (RXF 393) | GI50 (OVCAR-8) | GI50 (ACHN) | GI50 (SNB-19)
1 | CC(C)(C)c1cc(/C=C(\C#N)C2=NCCO2)cc(C(C)(C)C)c1O | 3.2 µM (inactive) | 2.92 µM (inactive) | 2.42 µM (inactive) | 4.06 µM (inactive) | 4.44 µM (inactive) | 2.92 µM (inactive) | 2.51 µM (inactive) | 5.96 µM (inactive) | 3.57 µM (inactive) | 2.17 µM (inactive) | 2.66 µM (inactive) | 4.61 µM (inactive) | 2.73 µM (inactive) | 3.59 µM (inactive) | 3.31 µM (inactive) | 2.86 µM (inactive) | 3.26 µM (inactive) | 4.67 µM (inactive) | 3.56 µM (inactive) | 4.43 µM (inactive)
2 | c1ccc([P+](c2ccccc2)(c2ccccc2)c2ccc([P+](c3ccccc3)(c3ccccc3)c3ccccc3)c3ccccc23)cc1 | 44.4 µM (inactive) | < 0.01 µM (active) | 70.1 µM (inactive) | > 100 µM (inactive) | 70.1 µM (inactive) | 49.2 µM (inactive) | 61.4 µM (inactive) | 30.5 µM (inactive) | 34.4 µM (inactive) | 46.3 µM (inactive) | > 100 µM (inactive) | > 100 µM (inactive) | > 100 µM (inactive) | 29.6 µM (inactive) | > 100 µM (inactive) | > 100 µM (inactive) | > 100 µM (inactive) | 88.1 µM (inactive) | > 100 µM (inactive) | 65 µM (inactive)
3 | C/C(Nc1ccc(Cl)cc1)=C1/CCOC1=O | > 70 µM (inactive) | 21.5 µM (inactive) | > 67.8 µM (inactive) | > 53.2 µM (inactive) | 4.89 µM (inactive) | 5.68 µM (inactive) | > 31.4 µM (inactive) | 0.277 µM (active) | 0.618 µM (active) | 46.8 µM (inactive) | > 75.9 µM (inactive) | > 100 µM (inactive) | 2.81 µM (inactive) | 0.346 µM (active) | 59.2 µM (inactive) | 6.7 µM (inactive) | > 32.1 µM (inactive) | 7.89 µM (inactive) | 13.7 µM (inactive) | > 100 µM (inactive)
4 | Cc1cc(N(CCOS(C)(=O)=O)CCOS(C)(=O)=O)ccc1/C=N/c1ccc(-c2csc(-c3ccc(Br)cc3)n2)cc1 | 0.8 µM (active) | 1.7 µM (inactive) | 3.99 µM (inactive) | 15.6 µM (inactive) | 2.65 µM (inactive) | 6.58 µM (inactive) | 0.0483 µM (active) | 9.18 µM (inactive) | 13.3 µM (inactive) | 10.3 µM (inactive) | 15.1 µM (inactive) | 9.95 µM (inactive) | 10.2 µM (inactive) | 12.2 µM (inactive) | 1.98 µM (inactive) | 2.95 µM (inactive) | 1.78 µM (inactive) | 12.9 µM (inactive) | 0.518 µM (active) | 19.4 µM (inactive)
5 | COc1cc2cccc(N)c2cc1OC | > 100 µM (inactive) | > 45.3 µM (inactive) | > 100 µM (inactive) | > 100 µM (inactive) | > 100 µM (inactive) | > 100 µM (inactive) | > 100 µM (inactive) | > 100 µM (inactive) | > 100 µM (inactive) | > 100 µM (inactive) | > 100 µM (inactive) | > 100 µM (inactive) | > 100 µM (inactive) | > 100 µM (inactive) | > 100 µM (inactive) | > 100 µM (inactive) | > 100 µM (inactive) | > 100 µM (inactive) | > 100 µM (inactive) | > 100 µM (inactive)
6 | C[C@]12CC[C@H]3[C@@H](CC=C4C[C@@H](O)CC[C@@]43C)[C@@H]1C/C(=C\c1ccncc1)[C@@H]2O | 16.3 µM (inactive) | 8.87 µM (inactive) | 27.1 µM (inactive) | 31.1 µM (inactive) | 19.7 µM (inactive) | 31.8 µM (inactive) | 15.1 µM (inactive) | 22 µM (inactive) | 15.9 µM (inactive) | 23.7 µM (inactive) | 17.3 µM (inactive) | 21.2 µM (inactive) | 27.1 µM (inactive) | 15.8 µM (inactive) | 28.3 µM (inactive) | 16.6 µM (inactive) | 18.1 µM (inactive) | 15 µM (inactive) | 16.9 µM (inactive) | 21.2 µM (inactive)
7 | O=C(Nc1cccc(NC(=O)C(=O)C2CCC3=C(Sc4ccccc4N3)C2=O)n1)C(=O)C1CCC2=C(Sc3ccccc3N2)C1=O (stereo not given) | 74.6 µM (inactive) | 71.4 µM (inactive) | 9.68 µM (inactive) | 40.7 µM (inactive) | > 100 µM (inactive) | 29.8 µM (inactive) | 65.9 µM (inactive) | 73.1 µM (inactive) | 29.2 µM (inactive) | > 100 µM (inactive) | 40.8 µM (inactive) | 44.8 µM (inactive) | 47.3 µM (inactive) | 43.7 µM (inactive) | > 100 µM (inactive) | 42.6 µM (inactive) | > 100 µM (inactive) | 43.8 µM (inactive) | 76.6 µM (inactive) | 73.6 µM (inactive)
